In BigSolDB 2.1:

N=C(N)NC(N)=S
solubility (mole fraction)
Conditions	283.15 K	288.15 K	293.15 K	298.15 K	303.15 K	308.15 K	313.15 K	318.15 K	323.15 K
in 1,4-dioxane	–	0.00901	0.0107	0.0127	0.0151	0.0178	0.0208	0.0241	0.028
in NMP	0.0139	0.0166	0.0195	0.0236	0.0281	0.0329	0.0389	0.0455	0.0532
in acetone	0.0103	0.0123	0.0145	0.0175	0.0203	0.0241	0.028	0.0324	0.0371
in acetonitrile	0.00365	0.00428	0.00504	0.00591	0.00688	0.008	0.00927	0.0105	0.0121
in cyclohexane	3.6e-05	4.3e-05	5e-05	6e-05	7e-05	8.4e-05	9.9e-05	0.000118	0.00014
in ethanol	0.0045	0.00521	0.00605	0.00706	0.00817	0.00933	0.0106	0.0122	0.014
in ethyl acetate	0.00196	0.00245	0.00314	0.00391	0.00471	0.00569	0.00679	0.00797	0.0094
in isopropanol	0.00124	0.00167	0.00223	0.00286	0.00363	0.00456	0.00559	0.0069	0.00854
in methanol	0.00558	0.00635	0.00744	0.0089	0.0105	0.0123	0.0143	0.0165	0.0192
in n-butanol	0.000477	0.000749	0.00111	0.00162	0.00226	0.00314	0.00432	0.00575	0.0076
in n-propanol	0.00271	0.00326	0.00393	0.00468	0.00564	0.00676	0.00782	0.00901	0.0104
in toluene	0.000126	0.000137	0.000149	0.00016	0.000174	0.000189	0.000206	0.000223	0.000243
